In ChEMBL document CHEMBL6083206, “SLL-1A-16 suppresses proliferation and induces autophagy in non-small-cell lung cancer cells via the AKT/mTOR signaling pathway” (RSC Med Chem, 2024):
Activity calls are given as the source filed them. No cut-off for these calls is given here.

How the values were obtained:
A549 [1] = test: Antitumor activity against human A549 cells xenografted in Balb/c nude mouse assessed as reduction in tumor growth rate at 7.5 to 15 mg/kg, ip administered for 14 days; format: functional, organism-based; settings: dose 7.5-15 mg/kg, time 14.0 day
A549 [2] = test: Induction of apoptosis in human A549 cells assessed as necrotic cells at 10 uM incubated for 24 hrs by Annexin V-FITC/PI staining based flow cytometric analysis (reference value: 0.97 %); format: functional
[3] = Toxicity in Balb/c nude mouse xenografted with human A549 cells assessed as reduction in body weight at 7.5 to 15 mg/kg, ip administered for 14 days; format: organism-based; settings: in vivo, 336 h, dose 7.5-15 mg/kg, time 14 day
A549 [4] = test: Inhibition of Akt/mTOR signalling pathway in human A549 cells assessed as decrease in phosphorylated PRAS40 expression by Western blot analysis; format: cell-based; settings: dose 10-30 µM
NCI-H460 [5] = test: Inhibition of Akt/mTOR signaling pathway in human NCI-H460 cells assessed as decrease in mTOR expression in presence of temsirolimus by Western blot analysis; format: cell-based
A549 [6] = test: Induction of apoptosis in human A549 cells assessed as viable cells at 30 uM incubated for 24 hrs by Annexin V-FITC/PI staining based flow cytometric analysis (reference value: 96.29 %); format: functional; settings: read-out: Activity
A549 [7] = test: Inhibition of Akt/mTOR signalling pathway in human A549 cells assessed as decrease in phosphorylated Akt expression by Western blot analysis; format: cell-based; settings: dose 10-30 µM
A549 [8] = test: Inhibition of Akt/mTOR signalling pathway in human A549 cells assessed as decrease in phosphorylated P70 S6K expression by Western blot analysis; format: cell-based; settings: dose 10-30 µM
NCI-H460 [9] = test: Cell cycle arrest in human NCI-H460 cells assessed as downregulation of CDK4 expression at 10 to 30 uM by Western blot analysis; format: functional, cell-based; settings: dose 10-30 µM
NCI-H460 [10] = test: Inhibition of Akt/mTOR signalling pathway in human NCI-H460 cells assessed as decrease in phosphorylated Akt expression by Western blot analysis; format: cell-based; settings: dose 10-30 µM
NCI-H460 [11] = test: Induction of apoptosis in human NCI-H460 cells assessed as late apoptotic cells at 10 uM incubated for 24 hrs by Annexin V-FITC/PI staining based flow cytometric analysis (reference value: 4.15 %); format: functional
A549 [12] = test: Inhibition of Akt/mTOR signalling pathway in human A549 cells assessed as decrease in mTOR expression by Western blot analysis; format: cell-based; settings: dose 10-30 µM
A549 [13] = test: Inhibition of Akt/mTOR signaling pathway in human A549 cells assessed as decrease in mTOR expression in presence of temsirolimus by Western blot analysis; format: cell-based
A549 [14] = test: Inhibition of colony formation in human A549 cells at 10 to 30 uM incubated for 24 hrs by giemsa staining based analysis; format: functional, cell-based; settings: dose 10-30 µM
NCI-H460 [15] = test: Antiproliferative activity against human NCI-H460 cells assessed as inhibition of cell proliferation in presence of temsirolimus by CCK8 assay; format: functional, cell-based
NCI-H460 [16] = test: Inhibition of Akt/mTOR signalling pathway in human NCI-H460 cells assessed as decrease in phosphorylated P70 S6k expression by Western blot analysis; format: cell-based; settings: dose 10-30 µM
A549 [17] = test: Induction of apoptosis in human A549 cells assessed as late apoptotic cells at 30 uM incubated for 24 hrs by Annexin V-FITC/PI staining based flow cytometric analysis (reference value: 2.29 %); format: functional
A549 [18] = test: Cell cycle arrest in human A549 cells assessed as accumulation of cells at G1 phase at 10 uM incubated for 24 hrs by PI staining based flow cytometric analysis (reference value: 56.42 +/- 1.36 %); format: functional
NCI-H460 [19] = test: Cell cycle arrest in human NCI-H460 cells assessed as accumulation of cells at G1-S phase at 10 to 30 uM incubated for 24 hrs by PI staining based flow cytometric analysis; format: functional; settings: dose 10-30 µM
NCI-H460 [20] = test: Induction of apoptosis in human NCI-H460 cells assessed as upregulation of Bax expression at 10 to 30 uM by Western blot analysis; format: functional, cell-based; settings: dose 10-30 µM
BEAS-2B = test: Cytotoxicity against human BEAS-2B cells assessed as inhibition of cell viability at 3 to 300 uM incubated for 48 hrs by CCK8 assay; format: toxicity, cell-based; settings: dose 3-300 µM
A549 [21] = test: Induction of apoptosis in human A549 cells assessed as upregulation of Bax expression at 10 to 30 uM by Western blot analysis; format: functional, cell-based; settings: dose 10-30 µM
NCI-H460 [22] = test: Inhibition of Akt/mTOR signalling pathway in human NCI-H460 cells assessed as decrease in mTOR expression by Western blot analysis; format: cell-based; settings: dose 10-30 µM
NCI-H460 [23] = test: Inhibition of Akt/mTOR signalling pathway in human NCI-H460 cells assessed as decrease in phosphorylated PRAS40 expression by Western blot analysis; format: cell-based; settings: dose 10-30 µM
NCI-H460 [24] = test: Induction of apoptosis in human NCI-H460 cells assessed as early apoptotic cells at 30 uM incubated for 24 hrs by Annexin V-FITC/PI staining based flow cytometric analysis (reference value: 3.22 %); format: functional
A549 [25] = test: Induction of apoptosis in human A549 cells assessed as early apoptotic cells at 30 uM incubated for 24 hrs by Annexin V-FITC/PI staining based flow cytometric analysis (reference value: 0.44 %); format: functional
NCI-H460 [26] = test: Induction of apoptosis in human NCI-H460 cells assessed as late apoptotic cells at 30 uM incubated for 24 hrs by Annexin V-FITC/PI staining based flow cytometric analysis (reference value: 4.15 %); format: functional
A549 [27] = test: Cell cycle arrest in human A549 cells assessed as downregulation of cyclin D1 expression at 10 to 30 uM by Western blot analysis; format: functional, cell-based; settings: dose 10-30 µM
[28] = system: Gefitinib-resistant A549/G cell; test: Inhibition of Akt/mTOR signaling pathway in human Gefitinib-resistant A549/G cell assessed as decrease in phosphorylated […] in presence of gefitinib by Western blot analysis; format: cell-based
A549 [29] = test: Inhibition of Akt/mTOR signalling pathway in human A549 cells assessed as decrease in phosphorylated 4EBP1 expression by Western blot analysis; format: cell-based; settings: dose 10-30 µM

SMILES: N#C[Se]CCCNC(=O)c1cccnc1
- Activity (A549 [1]): Active; Comparable To 25 Mg/Kg Of Gemcitabine Hydrochloride
- Activity (A549 [2]): 3.03%
- Activity [3]: Non-toxic
- inhibition (A549 [4]): Dose-dependent-effect; Inhibitory Ability Of Compound Is Comparable To Temsirolimus
- inhibition (NCI-H460 [5]): Active
- viability at 30 µM (A549 [6]): 75.9%
- inhibition (A549 [7]): Dose-dependent-effect; Inhibitory Ability Of Compound Is Comparable To Temsirolimus
- inhibition (A549 [8]): Dose-dependent-effect; Inhibitory Ability Of Compound Is Comparable To Temsirolimus
- Activity (NCI-H460 [9]): Active; G1 Phase Cell Cycle Arrest Observed
- inhibition (NCI-H460 [10]): Dose-dependent-effect; Inhibitory Ability Of Compound Is Comparable To Temsirolimus
- Activity (NCI-H460 [11]): 8.98%
- inhibition (A549 [12]): Dose-dependent-effect; Inhibitory Ability Of Compound Is Comparable To Temsirolimus
- inhibition (A549 [13]): Active
- inhibition (A549 [14]): Active
- Activity (NCI-H460 [15]): Active
- inhibition (NCI-H460 [16]): Dose-dependent-effect; Inhibitory Ability Of Compound Is Comparable To Temsirolimus
- Activity (A549 [17]): 14.41%
- Activity (A549 [18]): 75.43%
- Activity (NCI-H460 [19]): Active
- Activity (NCI-H460 [20]): Active
- Activity (BEAS-2B): Toxic
- Activity (A549 [21]): Active
- inhibition (NCI-H460 [22]): Dose-dependent-effect; Inhibitory Ability Of Compound Is Comparable To Temsirolimus
- inhibition (NCI-H460 [23]): Dose-dependent-effect; Inhibitory Ability Of Compound Is Comparable To Temsirolimus
- Activity (NCI-H460 [24]): 6.3%
- Activity (A549 [25]): 4.58%
- Activity (NCI-H460 [26]): 13.81%
- Activity (A549 [27]): Active; G1 Phase Cell Cycle Arrest Observed
- inhibition [28]: Active
- inhibition (A549 [29]): Dose-dependent-effect; Inhibitory Ability Of Compound Is Comparable To Temsirolimus
